This test addresses T1, SIRT1 (Homo sapiens, UniProt Q96EB6).
T1 sequence (Q96EB6 1-747): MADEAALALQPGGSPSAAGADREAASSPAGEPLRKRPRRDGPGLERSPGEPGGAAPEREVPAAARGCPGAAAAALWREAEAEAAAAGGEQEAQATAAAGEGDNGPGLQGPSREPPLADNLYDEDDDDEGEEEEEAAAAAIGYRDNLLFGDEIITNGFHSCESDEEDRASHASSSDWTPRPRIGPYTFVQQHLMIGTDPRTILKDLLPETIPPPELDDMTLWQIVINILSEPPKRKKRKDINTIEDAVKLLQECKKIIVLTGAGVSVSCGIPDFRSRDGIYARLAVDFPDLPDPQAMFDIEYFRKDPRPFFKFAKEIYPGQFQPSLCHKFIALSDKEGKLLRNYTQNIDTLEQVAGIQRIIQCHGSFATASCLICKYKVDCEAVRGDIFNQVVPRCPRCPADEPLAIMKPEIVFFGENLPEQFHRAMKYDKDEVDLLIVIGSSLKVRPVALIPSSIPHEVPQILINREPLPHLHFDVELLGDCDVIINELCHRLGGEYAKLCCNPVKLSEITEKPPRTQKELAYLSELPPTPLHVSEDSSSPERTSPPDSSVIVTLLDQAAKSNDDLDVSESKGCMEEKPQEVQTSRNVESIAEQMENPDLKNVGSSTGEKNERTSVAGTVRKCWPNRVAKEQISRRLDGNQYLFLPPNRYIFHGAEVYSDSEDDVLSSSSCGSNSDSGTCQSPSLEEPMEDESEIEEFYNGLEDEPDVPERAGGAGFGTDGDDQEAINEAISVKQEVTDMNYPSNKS
Put plainly: Trp mass spectrometry assay of SIRT1 activity. The test is classed as biochemical. Particulars: for Emax: read-out: Trp % Fold Act; for Trp EC1.5 (μM): concentration giving 150% activation of SIRT1. The source says:
Mass spectrometry based assays were used to identify modulators of SIRT1 activity. The TAMRA based assay utilized a peptide having 20 amino acid residues as follows: Ac-EE-K(biotin)-[…](Ac)NleSTEG-K(5TMR)-EE-NH2 (SEQ ID NO: 1), wherein K(Ac) is an acetylated lysine residue and Nle is a norleucine. The peptide was labeled with the fluorophore 5TMR (excitation 540 nm/emission 580 nm) at the C-terminus. The sequence of the peptide substrate was based on p53 with several modifications. In addition, the methionine residue naturally present in the sequence was replaced with the norleucine because the methionine may be susceptible to oxidation during synthesis and purification. The Trp based assay utilized a peptide having an amino acid residues as follows: Ac-R-H-K-K(Ac)-W-NH2 (SEQ ID NO: 2).
The Trp mass spectrometry assay was conducted as follows. 0.5 μM peptide substrate and 120 μM βNAD^+ were incubated with 10 nM SIRT1 for 25 minutes at 25° C. in a reaction buffer (50 mM HEPES pH 7.5, […], 1 mM DTT, 0.05% BSA). The SIRT1 protein was obtained by cloning the SirT1 gene into a T7-promoter containing vector, which was then expressed in BL21(DE3) bacterial cells and purified as described in further detail below. Test compound was added at varying concentrations to this reaction mixture and the resulting reactions were monitored. After the 25 minute incubation with SIRT1, 10 μL of 10% formic acid was added to stop the reaction. The resulting reactions were sealed and frozen for later mass spec analysis. The relative SIRT1 activity was then determined by measuring the amount of O-acetyl-ADP-ribose (OAADPR) formed (or, alternatively, the amount of deacetylated Trp peptide generated) by the NAD-dependent sirtuin deacetylation reaction in the presence of varying concentrations of the test compound versus control reactions lacking the test compound. The degree to which the test agent activated deacetylation by SIRT1 was expressed as EC1.5 (i.e., the concentration of compound required to increase SIRT1 activity by 50% over the control lacking test compound), and Percent Maximum Activation (i.e., the maximum activity relative to control (100%) obtained for the test compound).
A control for inhibition of sirtuin activity was conducted by adding 1 μL of 500 mM nicotinamide as a negative control at the start of the reaction (e.g., permits determination of maximum sirtuin inhibition). A control for activation of sirtuin activity was conducted using 10 nM of sirtuin protein, with 1 μL of DMSO in place of compound, to determine the amount of deacetylation of the substrate at a given time point within the linear range of the assay. This time point was the same as that used for test compounds and, within the linear range, the endpoint represents a change in velocity.
For the above assay, SIRT1 protein was expressed and purified as follows. The SirT1 gene was cloned into a T7-promoter containing vector and transformed into BL21(DE3). The protein was expressed by induction with 1 mM IPTG as an N-terminal His-tag fusion protein at 18° C. overnight and harvested at 30,000×g. Cells were lysed with lysozyme in lysis buffer (50 mM Tris-HCl, 2 mM Tris[2-carboxyethyl]phosphine (TCEP), 10 μM ZnCl2, 200 mM NaCl) and further treated with sonication for […] for complete lysis. The protein was purified over a Ni-NTA column (Amersham) and fractions containing pure protein were pooled, concentrated and run over a sizing column (Sephadex S200 26/60 global). The peak containing soluble protein was collected and run on an Ion-exchange column (MonoQ). Gradient elution (200 mM-500 mM NaCl) yielded pure protein. This protein was concentrated and dialyzed against dialysis buffer (20 mM Tris-HCl, 2 mM TCEP) overnight. The protein was aliquoted and frozen at −80° C. until further use.

The mark [1] stands for this setting: percent maximum fold activation of SIRT1, Trp peptide substrate.
[2] abbreviates: Trp assay, percent maximum fold activation.

The record followed here is patent US9957271B2, “Substituted bicyclic aza-heterocycles and analogues as sirtuin modulators” (GlaxoSmithKline, LLC, priority 2012, dated 2018).

Structures are written as SMILES. Like-named read-outs stand apart in the source and are kept apart here.

As to `Cc1nn2ccc(N3CCC[C@@H]3C(F)(F)F)nc2c1C(=O)Nc1cccnc1` [Compound 1071], the Emax under setting [1] is ≥ 350%.
Still for that read-out and setting: the result for `COc1nccc(NC(=O)c2c(C)nn3ccc(N4CCC[C@H]4C(F)(F)F)nc23)n1` [Compound 1049] reads ≥ 350%.
The same measure, in the same setting: the result for `Cc1nn2ccc(N3CCC[C@@H]3C(F)(F)F)nc2c1C(=O)Nc1cccnn1` [Compound 1075] reads ≥ 350%.
`O=C(Nc1cccnn1)c1cnc2ccc(N3CC[C@H](O)C3)nn12` [Compound 984]: the Emax under setting [2] is < 350%.
`O=C(Nc1cncc(F)c1)c1cnn2ccc(N3CCC[C@@H]3C(F)(F)F)nc12` [Compound 1089]: under setting [1], the Emax was < 350%.
Still for that read-out and setting: the result for `O=C(Nc1cnccn1)c1cnn2ccc(N3CCC[C@@H]3C(F)(F)F)nc12` [Compound 1078] reads ≥ 350%.
For the compound `O=C(Nc1cccnn1)c1cnc2ccc(-c3cccc(OC[C@H](O)CO)c3)nn12` [Compound 887], the “Trp EC1.5 (μM)” value (Trp assay) was “A (EC1.5<1 μM)”. Moreover, the Emax under setting [2] was < 350%.
In the same order, the values of `Cc1nc2ccc(N3CC[C@H](F)C3)nn2c1C(=O)Nc1ccccn1` [Compound 840] are “B (EC1.5 1-25 μM)” and ≥ 350%.
In the same order, the values of `O=C(Nc1cccnc1)c1cnc2ccc(N3CCCC3)nn12` [Compound 896] are “B (EC1.5 1-25 μM)” and < 350%.
As to `Cc1nc2c(OC[C@H](O)CO)cc(-c3ccccc3C(F)(F)F)nn2c1C(=O)Nc1ccccn1` [Compound 842], the “Trp EC1.5 (μM)” value (Trp assay) is given as “A (EC1.5<1 μM)”. Moreover, the Emax under setting [2] was ≥ 350%.
For `Cc1nc(NC(=O)c2cnn3ccc(N4CCC[C@H]4C(F)(F)F)nc23)sc1C` [Compound 1032, (S)-N-(4,5-dimethylthiazol-2-yl)-5-(2-(trifluoromethyl)pyrrolidin-1-yl)pyrazolo[1,5-a]pyrimidine-3-carboxamide], the Emax under setting [1] is ≥ 350%.
On the same count and under the same terms, the result for `O=C(Nc1cccnc1)c1cnn2ccc(N3CCC(C(F)(F)F)CC3)nc12` [Compound 1066] reads ≥ 350%.
The same measure, in the same setting: with `O=C(Nc1cncc(F)c1)c1cnn2ccc(N3CCCCC3C(F)(F)F)nc12` (centres unmarked) [Compound 1010] the figure was ≥ 350%.
For `O=C(Nc1cncc(F)c1)c1cnc2ccc(N3CCC(C(F)(F)F)C3)nn12` (centres unmarked) [Compound 959], the Emax under setting [2] is ≥ 350%.
Turning to `CN(C)[C@H]1CCN(c2ccc3ncc(C(=O)Nc4ccncc4F)n3n2)C1` [Compound 869], for the setting “Trp assay”, the “Trp EC1.5 (μM)” value is on record as “B (EC1.5 1-25 μM)”. Moreover, under setting [2], the Emax is < 350%.
In the same order, the values of `Cc1ccnc(NC(=O)c2c(C)nc3c(OC[C@H](O)CO)cc(-c4ccccc4C(F)(F)F)nn23)c1` [Compound 859] are “A (EC1.5<1 μM)” and ≥ 350%.
As for `CC1(C)CCN(c2ccc3ncc(C(=O)Nc4ccc(F)cn4)n3n2)C1` [Compound 954], the Emax under setting [2] was < 350%.
Still for that read-out and setting: the result for `Cc1nc2ccc(N3CCCC(F)(F)C3)nn2c1C(=O)Nc1cccnn1` [Compound 994] reads ≥ 350%.
In the case of `O=C(Nc1ccncc1F)c1cnc2ccc(-c3cccc(OC[C@H](O)CO)c3)nn12` [Compound 883], the “Trp EC1.5 (μM)” value (Trp assay) is listed as “A (EC1.5<1 μM)”. Besides, the Emax under setting [2] is < 350%.
In the same order, the values of `O=C(Nc1cccnc1)c1cnc2ccc(N3CC[C@H](F)C3)nn12` [Compound 837] are “B (EC1.5 1-25 μM)” and < 350%.
The matching figures for `CO[C@H]1CCN(c2ccc3ncc(C(=O)Nc4cccnc4)n3n2)C1` [Compound 934]: “B (EC1.5 1-25 μM)” and < 350%.
`Cc1nc2c(OC[C@H](O)CO)cc(-c3ccccc3C(F)(F)F)nn2c1C(=O)Nc1ccc(F)cn1` [Compound 835]: the “Trp EC1.5 (μM)” value (Trp assay) is given as “A (EC1.5<1 μM)”. In addition, the Emax under setting [2] was ≥ 350%.
In the same order, the values of `Cc1nc2c(OC[C@H](O)CO)cc(-c3ccccc3C(F)(F)F)nn2c1C(=O)Nc1ccncc1` [Compound 863] are “A (EC1.5<1 μM)” and ≥ 350%.
Turning to `CC1CCCN1c1ccn2ncc(C(=O)Nc3cccnn3)c2n1` (centres unmarked) [Compound 1040], the Emax under setting [1] is ≥ 350%.
In the case of `Cn1cc2ccc(NC(=O)c3cnc4ccc(N5CCC[C@@H]5C(F)(F)F)nn34)cc2n1` [Compound 1020], the Emax under setting [1] was ≥ 350%.
`CO[C@H]1CCN(c2ccc3ncc(C(=O)Nc4ccncn4)n3n2)C1` [Compound 973, (S)-6-(3-methoxypyrrolidin-1-yl)-N-(pyrimidin-4-yl)imidazo[1,2-b]pyridazine-3-carboxamide]: under setting [2], the Emax is < 350%.
For the compound `O=C(Nc1ccc(F)cn1)c1cnc2ccc(-c3cccc(OC[C@H](O)CO)c3)nn12` [Compound 884], for the setting “Trp assay”, the “Trp EC1.5 (μM)” value was “B (EC1.5 1-25 μM)”. The Emax under setting [2] was < 350%.
With `Cc1nc2ccc(N3CC[C@H](F)C3)nn2c1C(=O)Nc1cnccn1` [Compound 845], the “Trp EC1.5 (μM)” value (Trp assay) was “B (EC1.5 1-25 μM)”. For the same compound, the Emax under setting [2] is < 350%.
For `O=C(Nc1ccncn1)c1cnc2ccc(N3CCC(F)(F)CC3)nn12` [Compound 964], the Emax under setting [2] was < 350%.
`O=C(Nc1cnccn1)c1cnc2ccc(N3CC[C@H](F)C3)nn12` [Compound 853]: the “Trp EC1.5 (μM)” value (Trp assay) is “C (EC1.5>25 μM)”. Moreover, under setting [2], the Emax was < 350%.
The matching figures for `Cc1nc2ccc(N3CC[C@H](N(C)C)C3)nn2c1C(=O)Nc1ccccn1` [Compound 867]: “B (EC1.5 1-25 μM)” and ≥ 350%.
Turning to `O=C(Nc1cccnn1)c1cnn2ccc(N3CCCCC3C(F)(F)F)nc12` (centres unmarked) [Compound 1021], the Emax under setting [1] was ≥ 350%.
`O=C(Nc1cncc(F)c1)c1cnc2ccc(N3CC[C@H](O)C3)nn12` [Compound 985]: under setting [2], the Emax was < 350%.
Regarding `O=C(Nc1ccc(F)cn1)c1cnc2ccc(N3CCCC(C(F)(F)F)C3)nn12` (centres unmarked) [Compound 900], the “Trp EC1.5 (μM)” value (Trp assay) is listed as “A (EC1.5<1 μM)”. Besides, the Emax under setting [2] is < 350%.
As to `CN1CCN(c2ccc3ncc(C(=O)Nc4ccccn4)n3n2)CC1` [Compound 948], the Emax under setting [2] was < 350%.
As to `O=C(Nc1cccnc1)c1cnn2ccc(N3CCC[C@@H]3C(F)(F)F)nc12` [Compound 1076], the Emax under setting [1] is ≥ 350%.
As for `Cn1ccc(NC(=O)c2cnc3ccc(N4CC[C@H](F)C4)nn23)n1` [Compound 891], the “Trp EC1.5 (μM)” value (Trp assay) is “B (EC1.5 1-25 μM)”. The Emax under setting [2] is ≥ 350%.
For the compound `O=C(Nc1cccnc1)c1cnc2ccc(N3CCC(C(F)(F)F)C3)nn12` (centres unmarked) [Compound 958], the Emax under setting [2] is ≥ 350%.
Take `O=C(Nc1cccnn1)c1cnn2ccc(N3CCCC3C(F)(F)F)nc12` (centres unmarked) [Compound 1022]: the Emax under setting [1] is ≥ 350%.
